Article PMC6120666 (The EMBO Journal, 2018)

Legend:
U2OS/NOD2 cells = test: Intracellular flow cytometry of CXCL8 after L18-MDP; format: cell-based, human; conditions: U2OS/NOD2 RIPK2 KO cells reconstituted with T95W gatekeeper mutant; L18-MDP 200 ng/ml, 4 h
Protocol: Purified material and lysates were analyzed by immunoblotting. […] Numbering below schematic refers to amino acid residues in human RIPK2 and indicate domain boundaries. […] Data information: Data in (A, B, D, H) represent the mean ± SEM of 2–4 independent experiments, each performed in duplicate. […] Two‐way ANOVA was used to determine statistical significance. See also Fig EV1.Source data are available online for this figure.
Dark gray represents areas occupied by RIPK2; white areas indicate empty spaces in CSLP binding pocket. […] Dotted black box indicates region shown for models with CSLP37 and CSLP43. • Molecular docking model of RIPK2 kinase domain in complex with CSLP43 (green) based on RIPK2/CSLP18 structure from (D). […] Two‐way ANOVA was used to determine statistical significance. See also Fig EV2.
(§1) GST-BIR2-XIAP as indicated. Intensity quantification of SPOTs was performed using ImageJ software
(§2) Dual luciferase reporter assay
(§3) Intracellular flow cytometry of CXCL8
(§4) for cell death) or vehicle for 24h. Viability was determined using the CellTiter-Glo® luminescent cell
(§5) together with Transfection Carrier DNA (Promega).
(§6) After addition of Nano-Glo

[1] = target: T1, XIAP BIR2 - RIPK2 interaction (Homo sapiens, UniProt O43353); test: GST-BIR2-XIAP pulldown of RIPK2; format: binding; conditions: U2OS/NOD2 lysates; inhibitors at 100-fold IC50 of RIPK2 kinase activity
T1 construct: U2OS/NOD2 cells were lysed in TBS lysis buffer; endogenous in cells; host or cells: U2OS/NOD2 cell lysate (RIPK2); E. coli BL21 (GST-BIR2-XIAP)
Protocol: (§7) For co‐immunoprecipitation of HA‐XIAP with RIPK2, transfected and treated cells were lysed in TBS buffer containing 0.5% NP‐40, cOmplete and PhosSTOP inhibitors (Roche) and the lysate was cleared by centrifugation. The lysates were incubated with anti‐HA‐agarose overnight, washed 3× with lysis buffer, and analyzed by immunoblotting. For GST pulldown experiments, U2OS/NOD2 cells were lysed in TBS lysis buffer containing 0.5% NP‐40, cOmplete and PhosSTOP inhibitors (Roche). Cleared lysates were pretreated with kinase inhibitors or DMSO and incubated with GST‐XIAP‐BIR2 bound to Glutathione Sepharose at 4°C overnight. Bound material was washed 3× with lysis buffer or PBS, eluted with 15 mM Glutathione in PBS, and analyzed by immunoblotting. […] The bound material was eluted and analyzed as described above.
(§8) For coimmunoprecipitation of HA-XIAP with RIPK2, transfected and treated cells were lysed in TBS buffer containing 0.5% NP-40, cOmplete and PhosSTOP inhibitors (Roche) and the lysate was cleared by centrifugation. The lysates were incubated with anti-HA-agarose overnight, washed 3x with lysis buffer and analyzed by immunoblotting. For GST pull-down experiments, U2OS/NOD2 were lysed in TBS lysis buffer containing 0.5% NP-40, cOmplete and PhosSTOP inhibitors (Roche).
Cleared lysates were pretreated with kinase inhibitors or DMSO and incubated with GST-XIAP-BIR2 bound to Glutathione Sepharose at 4 °C overnight. Bound material was washed 3x with lysis buffer or PBS, eluted with 15 mM Glutathione in PBS and analyzed by immunoblotting. In pull-down […]
inhibitors or DMSO control in PBS were added together with RIPK2 kinase domain to GST-XIAP-BIR2 bound to Glutathione Sepharose. The bound material was eluted and analyzed as described above. […]

[2] = test system: RIPK2 ubiquitination in U2OS/NOD2 and THP-1 cells; test: Purification of Ub-conjugates (TUBE pulldown), RIPK2 ubiquitination; format: cell-based, human
Protocol: as §7, with “above. […]” for “above.”
PBS, eluted with 15 mM Glutathione in PBS and analyzed by immunoblotting. […]

[3] = target: T2, NanoLuc-RIPK2 WT and T95W (Homo sapiens, UniProt O43353, T95W); test: nanoBRET assay in HEK293 cells with SGC-590001 probe; format: binding; conditions: up to more than 100 nM
T2 construct: expressed in transfected cells; host or cells: HEK293 cells
Protocol: Purified material and lysates were analyzed by immunoblotting. […] Two‐way ANOVA was used to determine statistical significance.
as §1, §2, §3, §4, §5, §6

[4] = target: T3, XIAP-RIPK2 interaction in HEK293FT cells (Homo sapiens, UniProt O43353); test: Co-immunoprecipitation of HA-XIAP with endogenous RIPK2; format: cell-based; conditions: 200 nM
T3 construct: endogenous RIPK2 from HEK293FT cells; endogenous in cells; host or cells: HEK293FT cells (RIPK2 endogenous; 3xHA-XIAP-F495A transfected)
Protocol: Purified material and lysates were analyzed by immunoblotting. • Pulldown of RIPK2 from U2OS/NOD2 cell lysates with recombinant GST‐BIR2‐XIAP in the presence of CSLP inhibitors. […] Purified material and lysates were analyzed by immunoblotting. • Pulldown of recombinant RIPK2 kinase domain (dephosphorylated) with recombinant GST‐BIR2‐XIAP in the presence of CSLP inhibitors as indicated. Inhibitors were used at the same concentrations as in (C). Purified material and lysates were analyzed by immunoblotting. • Purification of Ub‐conjugates from THP‐1 cells after treatment with L18‐MDP (200 ng/ml, 1 h) and CSLP inhibitors as indicated. Purified material and lysates were analyzed by immunoblotting. […]
For co‐immunoprecipitation of HA‐XIAP with RIPK2, transfected and treated cells were lysed in TBS buffer containing 0.5% NP‐40, cOmplete and PhosSTOP inhibitors (Roche) and the lysate was cleared by centrifugation. The lysates were incubated with anti‐HA‐agarose overnight, washed 3× with lysis buffer, and analyzed by immunoblotting. […] Bound material was washed 3× with lysis buffer or PBS, eluted with 15 mM Glutathione in PBS, and analyzed by immunoblotting. […] The bound material was eluted and analyzed as described above. […]
(§9) Ubiquitin conjugates were purified from treated cells using GST-1xUBAubq ubiquitin affinity reagent and analyzed by immunoblotting as described (Fiil et al., 2013). […]

GST-BIR2-XIAP [5] = target: T4, GST-BIR2-XIAP (Homo sapiens, UniProt P98170); test: SPOT peptide assay; format: binding; conditions: GST-tagged WT BIR2
T4 construct: XIAP BIR2 domain (aa 124-242) into pGTVL2 vector in frame with N-terminal HIS and GST tags; made in house; host or cells: E. coli (BL21)
Protocol: (§10) Cellulose‐bound peptide arrays were prepared employing standard Fmoc solid‐phase peptide synthesis using a MultiPep‐RSi‐Spotter (INTAVIS, Köln, Germany) as previously described (Picaud & Filippakopoulos, 2015). The assay was performed using recombinant 6xHIS‐GST‐BIR2 domain of XIAP protein, and bound protein was detected using anti‐His antibody HRP‐conjugated.
as §8, with “For GST pull-down experiments, U2OS/NOD2 were lysed in TBS lysis buffer containing 0.5% NP-40, cOmplete and PhosSTOP inhibitors (Roche).” left out
(§11) Cleared lysates were pretreated with kinase inhibitors or DMSO and incubated with GST-XIAP-BIR2 bound to Glutathione Sepharose at 4 °C overnight. Bound material was washed 3x with lysis buffer or PBS, eluted with 15 mM Glutathione in PBS and analyzed by immunoblotting. […] The bound material was eluted and analyzed as described above.
as §9
(§12) Proteins bound to peptides were detected using anti-His antibody HPR conjugated (diluted 1:15000) and the Pierce® ECL Western blotting Substrate (#32106, Thermo Fisher Scientific). […]

GST-BIR2-XIAP [6] = target: T5, GST-BIR2-XIAP (Homo sapiens, UniProt P98170, D214S); test: SPOT peptide assay; format: binding; conditions: D214S mutant BIR2
T5 construct: XIAP BIR2 domain (aa 124-242) into pGTVL2 vector in frame with N-terminal HIS and GST tags; made in house; host or cells: E. coli (BL21)
Protocol: as §10
as §8, with “For GST pull-down experiments, U2OS/NOD2 were lysed in TBS lysis buffer containing 0.5% NP-40, cOmplete and PhosSTOP inhibitors (Roche).” left out
as §11, §9, §12

| binding of WT XIAP BIR2 domain to peptide (GST-BIR2-XIAP [5]) | binding of D214S versus WT BIR2 domain to peptide (GST-BIR2-XIAP [6]) | Molecule | inhibition of NOD2 signaling (CXCL8) in cells expressing RIPK2 T95W (U2OS/NOD2 cells) | pulldown of RIPK2 by GST-BIR2-XIAP from cell lysates [1] | ubiquitination of kinase-dead RIPK2 variants after NOD2 stimulation ([2]; U2OS/NOD2 RIPK2 KO cells reconstituted with K47R or D146N) | RIPK2 ubiquitination after L18-MDP ([2]; U2OS/NOD2 or THP-1 cells, L18-MDP 200 ng/ml, 1 h) | binding to RIPK2 T95W in cells [3] | co-immunoprecipitation of endogenous RIPK2 with HA-XIAP [4] |
| --- | --- | --- | --- | --- | --- | --- | --- | --- |
| – | – | Cc1ccc(C(=O)Nc2ccc(CN3CCN(C)CC3)c(C(F)(F)F)c2)cc1C#Cc1cnc2cccnn12 [ponatinib, reference compound] | largely abolished the inhibitory effect | interfered | prevented ubiquitination | antagonized | ablated the binding | prevented |
| binds predominantly | reduced | A-S-G-T-V-S-S-A-R-H-A-D-W-R-V (ASGTVSSARHADWRV) [A13, RIPK2 15-mer SPOT peptide, residues 28-42] | – | – | – | – | – | – |
